# According to US8465960B2 (priority 2007, dated 2013):
# Key:
# [1] = target: influenza B virus NA with Ile222Thr mutation (UniProt P03474, I221T, species not given)
# [2] = system: influenza B virus NA with Gly402Ser mutation; type: biochemical
# [3] = target: influenza B virus NA with Ser250Gly mutation (Influenza B virus, UniProt P27907, S248G); type: biochemical
# [4] = target: influenza B virus NA with Asp198Asn mutation (Influenza B virus, UniProt P27907, D196N)
smiles,measurement,setting,value
CCOC(=O)C1=C[C@@H](OC(CC)CC)[C@H](NC(C)=O)[C@@H](N)C1 [oseltamivir],reduction in sensitivity compared with median IC50 of type B viruses,[1],6-7 fold
same,increase of IC50 of posttreatment isolate compared to virus isolated before treatment,[2],3.9 fold
same,effect of mutation on sensitivity,[3],did not reduce sensitivity
same,reduction in drug sensitivity compared with median IC50 of type B viruses,[4],3-4 fold
